In patent publication US8063229B2, “Antifungal triazole derivatives, method for the preparation thereof and pharmaceutical composition containing same” (Daewoong Pharmaceutical Co., Ltd., priority 2006, dated 2011):
≈ marks a conversion by molar mass, not a printed value.

Columns and labels:
[1] = tested on: Cryptococcus neoformans; assay: In vitro assay for antifungal activity (MIC80); format: cell-based; settings: concentration at which 80% inhibition of fungus growth occurs, RPMI 1640, alamarBlue, duplicate; for MIC80: Cryptococcus neoformans
Protocol: (§1) Each fungal strain to be tested was inoculated onto Sabouraud dextrose agar, YM agar, and potato dextrose agar and cultured at 35° C. for two to three days. Single colonies of such of the yeast fungi were collected from the culture and suspended in 5 ml of 0.85% sterile saline, in an appropriate amount so that the absorbance at 530 nm became 0.108. The suspensions was diluted serially by 1:50 (RPMI 1640 media:sterile saline) and then further diluted by 1:20 (RPMI 1640 media:sterile saline) to prepare liquid inocula having a cell count ranging from 1.0×10^3 to 5.0×10^3 CFU/ml.
(§2) Antifungal samples were prepared by serially diluting each of the compounds of the present invention in RPMI 1640 media to concentrations range from 0.0156 to 32 μg/ml. As an excipient, DMSO was added to the antifungal sample to a final concentration of 1% (VAT). 0.1 ml of each of the serially diluted test solution was added to each well of 96 well plate, followed by adding 0.1 ml of each of the fungal inocula thereto.
(§3) At a given concentration of the test compound, the fungus growth was observed, after 24 hours, with the naked eye for all yeast species except for Cryptococcus neoformans, and the filamentous fungus growth was observed, after 48 hours. Also, using the growth indicator alamarBlue, MIC80, the concentration of the test compound at which 80% inhibition of the fungus growth occurs was determined based on the value observed for the negative control.

[2] = tested on: Candida parapsilosis; assay: In vitro assay for antifungal activity (MIC80); format: cell-based; settings: concentration at which 80% inhibition of fungus growth occurs, RPMI 1640, alamarBlue, 24 hours, duplicate; for MIC80: Lodderomyces parapsilosis
Protocol: as §1, §2, §3

[3] = tested on: Candida glabrata; assay: In vitro assay for antifungal activity (MIC80); format: cell-based; settings: concentration at which 80% inhibition of fungus growth occurs, RPMI 1640, alamarBlue, 24 hours, duplicate; for MIC80: Nakaseomyces glabratus
Protocol: as §1, §2, §3

[4] = tested on: Candida tropicallis; assay: In vitro assay for antifungal activity (MIC80); format: cell-based; settings: concentration at which 80% inhibition of fungus growth occurs, RPMI 1640, alamarBlue, 24 hours, duplicate; for MIC80: Candida
Protocol: as §1, §2, §3

[5] = tested on: Candida albicans; assay: In vitro assay for antifungal activity (MIC80); format: cell-based; settings: concentration at which 80% inhibition of fungus growth occurs, RPMI 1640, alamarBlue, 24 hours, duplicate; for MIC80: Candida albicans
Protocol: as §1, §2, §3

[6] = tested on: Candida krusei; assay: In vitro assay for antifungal activity (MIC80); format: cell-based; settings: concentration at which 80% inhibition of fungus growth occurs, RPMI 1640, alamarBlue, 24 hours, duplicate; for MIC80: Pichia kudriavzevii
Protocol: as §1, §2, §3

[7] = tested on: Candida albicans; assay: In vivo assay for antifungal activity (survival of infected mice); settings: male mice, Candida albicans i.v.; 10 mg/kg orally once a day for seven days from 2 hours after infection; survival 28 days after infection
Protocol: 0.1 mL of a suspension containing 5×10^7 CFU/ml of Candida albicans was administered to each of 10 male mice by intravenous injection. 10 mg/kg of each of the test compounds to orally administer to the inoculated mouse 2 hours after the fungal infection. The test compound was administered once a day for seven days. The number of mice which survived the fungal infection for 28 days after the fungal infection was determined as % survival for each test group, and the results are given in Table 7: […]

[8] = Assay for subacute toxicity in mice; format: in vivo
Protocol: Subacute cytotoxicity tests were conducted by administering Example compounds 41 and 45, each suspended in aqueous 0.5% methylcellulose to mice once a day for 2 weeks.

[9] = mice, suspended in aqueous 0.5% methylcellulose, once a day for 2 weeks

Row | SMILES | MIC80 [1] | MIC80 [2] | MIC80 [3] | MIC80 [4] | MIC80 [5] | MIC80 [6] | % Survival [7] | changes in the living states, organs, liver enzyme and liver weight [8, 9] | toxic syndromes [8, 9] | toxic syndromes ([8]; mouse, in vivo) | MIC80 Cryptococcus neoformans [1] | MIC80 Candida parapsilosis [2] | MIC80 Candida glabrata [3] | MIC80 Candida tropicallis [4] | MIC80 Candida albicans [5] | MIC80 Candida krusei [6]
1 | C[C@@H](n1cc(N2CCN(c3ccc(Cl)cc3)C2=O)cn1)[C@](O)(Cn1cncn1)c1ccc(F)cc1F [Example 1, 1-(4-Chlorophenyl)-3-(1-((2R,3R)-3-(2,4-difluorophenyl)-3-hydroxy-4-(1H-1,2,4-triazol-1-yl)butan-2-yl)-1H-pyrazol-4-yl)imidazolidin-2-one] | 0.25 µg/mL (≈ 0.486 µM) | 0.125 µg/mL (≈ 0.243 µM) | 8 µg/mL (≈ 15.6 µM) | 1 µg/mL (≈ 1.95 µM) | ≤ 0.015 µg/mL | 2 µg/mL (≈ 3.89 µM) | – | – | – | – | – | – | – | – | – | –
2 | C[C@@H](n1cc(-n2ccn(-c3ccc(Cl)cc3)c2=O)cn1)[C@](O)(Cn1cncn1)c1ccc(F)cc1F [Example 23, 3-(4-Chlorophenyl)-1-(1-((2R,3R)-3-(2,4-difluorophenyl)-3-hydroxy-4-(1H-1,2,4-triazol-1-yl)butan-2-yl)-1H-pyrazol-4-yl)-1H-imidazole-2(3H)-one] | 0.125 µg/mL (≈ 0.244 µM) | ≤ 0.015 µg/mL | 4 µg/mL (≈ 7.81 µM) | 0.125 µg/mL (≈ 0.244 µM) | ≤ 0.015 µg/mL | 0.5 µg/mL (≈ 0.977 µM) | – | – | – | – | – | – | – | – | – | –
3 | C[C@@H](n1cc(CCc2ccc(F)cc2)cn1)[C@](O)(Cn1cncn1)c1ccc(F)cc1F [Example 38, (2R,3R)-2-(2,4-Difluorophenyl)-3-(4-(4-fluorophenethyl)-1H-pyrazol-1-yl)-1-(1H-1,2,4-triazol-1-yl)butan-2-ol] | 0.125 µg/mL (≈ 0.283 µM) | ≤ 0.015 µg/mL | 2 µg/mL (≈ 4.53 µM) | ≤ 0.015 µg/mL | ≤ 0.015 µg/mL | 0.25 µg/mL (≈ 0.566 µM) | – | – | – | – | – | – | – | – | – | –
4 | C[C@@H](n1cc(CCc2ccc(Cl)cc2)cn1)[C@](O)(Cn1cncn1)c1ccc(F)cc1F [Example 39, (2R,3R)-3-(4-(4-Chlorophenethyl)-1H-pyrazol-1-yl)-2-(2,4-difluorophenyl)-1-(1H-1,2,4-triazol-1-yl)butan-2-ol] | ≤ 0.015 µg/mL | ≤ 0.015 µg/mL | 1 µg/mL (≈ 2.18 µM) | 0.062 µg/mL (≈ 0.135 µM) | ≤ 0.015 µg/mL | 0.5 µg/mL (≈ 1.09 µM) | – | – | – | – | – | – | – | – | – | –
5 | C[C@@H](n1cc(/C=C/c2ccc(F)cc2)cn1)[C@](O)(Cn1cncn1)c1ccc(F)cc1F [Example 40, (2R,3R,E)-2-(2,4-Difluorophenyl)-3-(4-(4-fluorostyryl)-1H-pyrazol-1-yl)-1-(1H-1,2,4-triazol-1-yl)butan-2-ol] | 0.031 µg/mL (≈ 0.0705 µM) | ≤ 0.015 µg/mL | 2 µg/mL (≈ 4.55 µM) | ≤ 0.015 µg/mL | ≤ 0.015 µg/mL | 0.25 µg/mL (≈ 0.569 µM) | – | – | – | – | – | – | – | – | – | –
6 | C[C@@H](n1cc(/C=C/c2ccc(Cl)cc2)cn1)[C@](O)(Cn1cncn1)c1ccc(F)cc1F [Example 41, (2R,3R,E)-3-(4-(4-Chlorostyryl)-1H-pyrazol-1-yl)-2-(2,4-difluorophenyl)-1-(1H-1,2,4-triazol-1-yl)butan-2-ol] | ≤ 0.015 µg/mL | ≤ 0.015 µg/mL | 1 µg/mL (≈ 2.19 µM) | 0.125 µg/mL (≈ 0.274 µM) | ≤ 0.015 µg/mL | 0.5 µg/mL (≈ 1.1 µM) | 100% | no changes | none of the mice were observed to suffer from toxic syndromes | – | – | – | – | – | – | –
7 | C[C@@H](n1cc(C#Cc2ccc(F)cc2)cn1)[C@](O)(Cn1cncn1)c1ccc(F)cc1F [Example 45] | – | – | – | – | – | – | 100% | – | – | none of the mice were observed to suffer from toxic syndromes | 0.062 µg/mL (≈ 0.142 µM) | ≦0.015 μg/ml | 2 µg/mL (≈ 4.57 µM) | ≦0.015 μg/ml | ≦0.015 μg/ml | 0.5 µg/mL (≈ 1.14 µM)
8 | C[C@@H](n1cc(/C=C/c2cnccn2)cn1)[C@](O)(Cn1cncn1)c1ccc(F)cc1F [Example 53, (2R,3R,E)-2-(2,4-Difluorophenyl)-3-(4-(2-(pyrazin-2-yl)vinyl)-1H-pyrazol-1-yl)-1-(1H-1,2,4-triazol-1-yl)butan-2-ol] | 1 µg/mL (≈ 2.36 µM) | 0.125 µg/mL (≈ 0.295 µM) | – | – | 0.125 µg/mL (≈ 0.295 µM) | 4 µg/mL (≈ 9.45 µM) | – | – | – | – | – | – | – | – | – | –
9 | OC(Cn1cncn1)(Cn1cncn1)c1ccc(F)cc1F [Fluconazole, fluconazole, reference compound] | 32 µg/mL (≈ 104 µM) | > 32 µg/mL | > 32 µg/mL | > 32 µg/mL | 4 µg/mL (≈ 13.1 µM) | 4 µg/mL (≈ 13.1 µM) | 50% | – | – | – | – | – | – | – | – | –
